From patent US9662323B2, “Compounds having muscarinic receptor antagonist and beta2 adrenergic receptor agonist activity” (CHIESI FARMACEUTICI S.p.A., priority 2015, dated 2017)
Read-outs that look alike come from different tables or passages of the source.

How the values were obtained:
Human M3 receptor = target: T1, Human M3 receptor (Homo sapiens, UniProt P20309); assay: M3 Receptor Radioligand Binding Assay
T1 construct: purchased Perkin Elmer
Procedure: Biological Characterization M3 Receptor Radioligand Binding Assay
The assay was carried out in 96-well polypropylene plates in a volume of 250 ul. […] The final assay concentration of DMSO was 0.5% (v/v). The plates were sealed and incubated for 2 h at room temperature on an orbital shaker (slow speed). Membranes were harvested onto 96-well unifilter GF/C filter plates pre-treated with 0.5% polyethyleneimine (v/v), using a filter manifold, washed four times with 200 ul of assay buffer. The plates were dried before addition of 50 μl of microscint-0, sealed then read in a Trilux Microbeta scintillation counter.

Human β2 adrenoceptor = target: T2, Human β2 adrenoceptor (Homo sapiens, UniProt P07550); assay: β2 Adrenoceptor Radioligand Binding Assay
T2 construct: purchased Perkin Elmer
T2 sequence (P07550 whole entry): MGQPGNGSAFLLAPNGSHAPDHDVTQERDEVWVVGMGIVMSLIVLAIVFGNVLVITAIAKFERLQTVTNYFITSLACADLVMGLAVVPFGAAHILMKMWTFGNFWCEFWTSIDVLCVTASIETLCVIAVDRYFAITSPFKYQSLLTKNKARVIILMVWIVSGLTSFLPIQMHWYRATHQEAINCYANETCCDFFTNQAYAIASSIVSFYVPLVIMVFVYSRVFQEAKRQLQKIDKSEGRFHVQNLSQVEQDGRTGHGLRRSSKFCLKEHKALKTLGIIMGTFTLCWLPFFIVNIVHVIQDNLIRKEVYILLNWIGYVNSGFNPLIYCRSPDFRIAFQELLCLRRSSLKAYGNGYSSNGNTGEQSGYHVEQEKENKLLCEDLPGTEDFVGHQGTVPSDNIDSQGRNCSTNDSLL
Procedure: β2 Adrenoceptor Radioligand Binding Assay
The assay was carried out in 96-well polypropylene plates in a volume of 200 ul. The assay buffer used was 25 mM HEPES, 0.5% BSA (w/v), 1 mM EDTA, 0.02% ascorbic acid (v/v), (pH 7.4). The final assay concentration of DMSO was 0.5% (v/v). The plates were sealed and incubated for 1 h at room temperature on an orbital shaker (slow speed). Membranes were harvested onto 96-well unifilter GF/C filter plates pre-treated with 0.5% polyethyleneimine (v/v), using a filter manifold, washed six times with 200 ul of wash buffer containing 10 mM HEPES and 500 mM NaCl. The plates were dried before addition of 50 μl of microscint-0, sealed then read in a Trilux Microbeta scintillation counter. IC50 values are determined from competition curves using a non-linear curve fitting program. Ki values were calculated from IC50 values by the Cheng and Prusoff equation.

[1] = human M3 receptor membranes, [3H]-N-methyl scopolamine, read-out: M3 binding affinity (Ki class)
[2] = human β2 adrenoceptor membranes, 125-I Cyanopindolol, read-out: B2 binding affinity (Ki class)

T1 sequence (P20309 whole entry): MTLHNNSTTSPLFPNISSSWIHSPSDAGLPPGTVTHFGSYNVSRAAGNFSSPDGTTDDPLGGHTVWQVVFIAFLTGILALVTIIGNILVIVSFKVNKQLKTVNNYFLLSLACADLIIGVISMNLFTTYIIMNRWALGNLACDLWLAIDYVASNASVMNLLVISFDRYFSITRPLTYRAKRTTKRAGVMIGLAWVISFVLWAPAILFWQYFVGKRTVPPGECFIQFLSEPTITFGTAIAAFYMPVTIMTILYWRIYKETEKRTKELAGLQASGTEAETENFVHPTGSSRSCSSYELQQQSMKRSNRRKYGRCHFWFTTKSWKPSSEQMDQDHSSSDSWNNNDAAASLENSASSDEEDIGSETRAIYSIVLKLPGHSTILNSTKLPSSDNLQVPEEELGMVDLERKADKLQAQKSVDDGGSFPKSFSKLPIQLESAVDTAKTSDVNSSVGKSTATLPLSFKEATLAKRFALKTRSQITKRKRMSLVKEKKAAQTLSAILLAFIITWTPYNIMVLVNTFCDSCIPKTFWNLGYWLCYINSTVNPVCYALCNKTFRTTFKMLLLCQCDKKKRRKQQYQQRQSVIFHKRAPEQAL

O=C(Cc1ccc(OCc2ccc(CNC[C@H](O)c3ccc(O)c4[nH]c(=O)ccc34)cc2)cc1)N1CC(C(=O)O[C@H]2CN3CCC2CC3)(c2ccccc2)C1 [Compound 15A, (R)-Quinuclidin-3-yl 1-(2-(4-((4-((((R)-2-hydroxy-2-(8-hydroxy-2-oxo-1,2-dihydroquinolin-5-yl)ethyl)amino)methyl)benzyl)oxy)phenyl)acetyl)-3-phenylazetidine-3-carboxylate]
Ki (Human M3 receptor; [1]): < 1 nM | Ki (Human β2 adrenoceptor; [2]): < 1 nM

O=C(NCCCCNC[C@H](O)c1ccc(O)c2[nH]c(=O)ccc12)c1ccc(C(=O)N2CC(C(=O)O[C@H]3CN4CCC3CC4)(c3ccccc3)C2)s1 [Compound 11A, (R)-Quinuclidin-3-yl 1-(5-((4-(((R)-2-hydroxy-2-(8-hydroxy-2-oxo-1,2-dihydroquinolin-5-yl)ethyl)amino)butyl)carbamoyl)thiophene-2-carbonyl)-3-phenylazetidine-3-carboxylate]
Ki (Human M3 receptor; [1]): 1 to 10 nM | Ki (Human β2 adrenoceptor; [2]): < 1 nM

O=C(c1ccc(OCCCCCCNC[C@H](O)c2ccc(O)c3[nH]c(=O)ccc23)cc1)N1CCC(C(=O)O[C@H]2CN3CCC2CC3)(c2ccccc2)CC1 [Compound 49, (R)-Quinuclidin-3-yl 1-(4-((6-(((R)-2-hydroxy-2-(8-hydroxy-2-oxo-1,2-dihydroquinolin-5-yl)ethyl)amino)hexyl)oxy)benzoyl)-4-phenylpiperidine-4-carboxylate]
Ki (Human M3 receptor; [1]): < 1 nM | Ki (Human β2 adrenoceptor; [2]): < 1 nM

O=C(c1ccc(CN(Cc2ccc(CNC[C@H](O)c3ccc(O)c4[nH]c(=O)ccc34)cc2)S(=O)(=O)c2ccccc2)cc1)N1CCC(C(=O)O[C@H]2CN3CCC2CC3)(c2ccccc2)CC1 [Compound 61, (R)-Quinuclidin-3-yl 1-(4-((N-(4-((((R)-2-hydroxy-2-(8-hydroxy-2-oxo-1,2-dihydroquinolin-5-yl)ethyl)amino)methyl)benzyl)phenylsulfonamido)-methyl)benzoyl)-4-phenylpiperidine-4-carboxylate]
Ki (Human M3 receptor): < 1 nM | Ki (Human β2 adrenoceptor): > 10 nM

O=C(Cc1ccc(CC(=O)N(CCCNC[C@H](O)c2ccc(O)c3[nH]c(=O)ccc23)Cc2cccc(C(F)(F)F)c2)cc1)N1CCC(C(=O)O[C@H]2CN3CCC2CC3)(c2ccccc2)CC1 [Compound 37, (R)-Quinuclidin-3-yl 1-(2-(4-(2-((3-(((R)-2-hydroxy-2-(8-hydroxy-2-oxo-1,2-dihydroquinolin-5-yl)ethyl)amino)propyl)(3-(trifluoromethyl)benzyl)amino)-2-oxoethyl)phenyl)acetyl)-4-phenylpiperidine-4-carboxylate]
Ki (Human M3 receptor; [1]): < 1 nM | Ki (Human β2 adrenoceptor; [2]): 1 to 10 nM

O=C(c1ccc(COCc2ccc(CNC[C@H](O)c3ccc(O)c4[nH]c(=O)ccc34)cc2)cc1)N1CCC(C(=O)O[C@H]2CN3CCC2CC3)(c2ccccc2)CC1 [Compound 64, (R)-Quinuclidin-3-yl 1-(4-(((4-((((R)-2-hydroxy-2-(8-hydroxy-2-oxo-1,2-dihydroquinolin-5-yl)ethyl)amino)methyl)benzyl)oxy)methyl)benzoyl)-4-phenylpiperidine-4-carboxylate]
Ki (Human M3 receptor; [1]): < 1 nM | Ki (Human β2 adrenoceptor; [2]): 1 to 10 nM

O=C(CCc1ccc(C(=O)N(CCCNC[C@H](O)c2ccc(O)c3[nH]c(=O)ccc23)Cc2ccccc2)cc1)N1CCC(C(=O)O[C@H]2CN3CCC2CC3)(c2ccccc2)CC1 [Compound 54, (R)-Quinuclidin-3-yl 1-(3-(4-(benzyl(3-(((R)-2-hydroxy-2-(8-hydroxy-2-oxo-1,2-dihydroquinolin-5-yl)ethyl)amino)propyl)carbamoyl)phenyl)propanoyl)-4-phenylpiperidine-4-carboxylate]
Ki (Human M3 receptor; [1]): 1 to 10 nM | Ki (Human β2 adrenoceptor; [2]): 1 to 10 nM

O=C(Cc1ccc(CC(=O)N(CCCNC[C@H](O)c2ccc(O)c3[nH]c(=O)ccc23)Cc2ccccc2)cc1)N1CCC(C(=O)O[C@H]2CN3CCC2CC3)(c2ccccc2)CC1 [Compound 36, (R)-Quinuclidin-3-yl 1-(2-(4-(2-(benzyl(3-(((R)-2-hydroxy-2-(8-hydroxy-2-oxo-1,2-dihydroquinolin-5-yl)ethyl)amino)propyl)amino)-2-oxoethyl)phenyl)acetyl)-4-phenylpiperidine-4-carboxylate]
Ki (Human M3 receptor; [1]): < 1 nM | Ki (Human β2 adrenoceptor; [2]): < 1 nM

CN(CCCNC[C@H](O)c1ccc(O)c2[nH]c(=O)ccc12)C(=O)c1ccc(C(=O)N2CCC(C(=O)O[C@H]3CN4CCC3CC4)(c3ccccc3)CC2)s1 [Compound 27, (R)-Quinuclidin-3-yl 1-(5-((3-(((R)-2-hydroxy-2-(8-hydroxy-2-oxo-1,2-dihydroquinolin-5-yl)ethyl)amino)propyl)(methyl)carbamoyl)thiophene-2-carbonyl)-4-phenylpiperidine-4-carboxylate]
Ki (Human M3 receptor; [1]): 1 to 10 nM | Ki (Human β2 adrenoceptor; [2]): < 1 nM

O=C(Cc1ccc(OCCCCCNC[C@H](O)c2ccc(O)c3[nH]c(=O)ccc23)c(F)c1)N1CCC(C(=O)O[C@H]2CN3CCC2CC3)(c2ccccc2)CC1 [Compound 13, (R)-Quinuclidin-3-yl 1-(2-(3-fluoro-4-((5-(((R)-2-hydroxy-2-(8-hydroxy-2-oxo-1,2-dihydroquinolin-5-yl)ethyl)amino)pentyl)oxy)phenyl)acetyl)-4-phenylpiperidine-4-carboxylate]
Ki (Human M3 receptor; [1]): < 1 nM | Ki (Human β2 adrenoceptor; [2]): > 10 nM

O=C(Cc1ccc(CC(=O)N(CCCNC[C@H](O)c2ccc(O)c3[nH]c(=O)ccc23)Cc2cccc(F)c2)cc1)N1CCC(C(=O)O[C@H]2CN3CCC2CC3)(c2ccccc2)CC1 [Compound 42, (R)-Quinuclidin-3-yl 1-(2-(4-(2-((3-fluorobenzyl)(3-(((R)-2-hydroxy-2-(8-hydroxy-2-oxo-1,2-dihydroquinolin-5-yl)ethyl)amino)propyl)amino)-2-oxoethyl)phenyl)acetyl)-4-phenylpiperidine-4-carboxylate]
Ki (Human M3 receptor; [1]): < 1 nM | Ki (Human β2 adrenoceptor; [2]): < 1 nM

O=C(c1cc(Cl)c(OCCCCCNC[C@H](O)c2ccc(O)c3[nH]c(=O)ccc23)c(Cl)c1)N1CCC(C(=O)O[C@H]2CN3CCC2CC3)(c2ccccc2)CC1 [Compound 5, (R)-Quinuclidin-3-yl 1-(3,5-dichloro-4-((5-(((R)-2-hydroxy-2-(8-hydroxy-2-oxo-1,2-dihydroquinolin-5-yl)ethyl)amino)pentyl)oxy)benzoyl)-4-phenylpiperidine-4-carboxylate]
Ki (Human M3 receptor; [1]): 1 to 10 nM | Ki (Human β2 adrenoceptor; [2]): 1 to 10 nM

O=C(c1ccc(C(=O)N(CCCNC[C@H](O)c2ccc(O)c3[nH]c(=O)ccc23)Cc2ccccc2)s1)N1CCC(C(=O)O[C@H]2CN3CCC2CC3)(c2ccccc2)CC1 [Compound 28, (R)-Quinuclidin-3-yl 1-(5-(benzyl(3-(((R)-2-hydroxy-2-(8-hydroxy-2-oxo-1,2-dihydroquinolin-5-yl)ethyl)amino)propyl)carbamoyl)thiophene-2-carbonyl)-4-phenylpiperidine-4-carboxylate]
Ki (Human M3 receptor; [1]): 1 to 10 nM | Ki (Human β2 adrenoceptor; [2]): < 1 nM

Cc1cc(CC(=O)N2CCC(C(=O)O[C@H]3CN4CCC3CC4)(c3ccccc3)CC2)ccc1OCCCCCNC[C@H](O)c1ccc(O)c2[nH]c(=O)ccc12 [Compound 12, (R)-Quinuclidin-3-yl 1-(2-(4-((5-(((R)-2-hydroxy-2-(8-hydroxy-2-oxo-1,2-dihydroquinolin-5-yl)ethyl)amino)pentyl)oxy)-3-methylphenyl)acetyl)-4-phenylpiperidine-4-carboxylate]
Ki (Human M3 receptor; [1]): 1 to 10 nM | Ki (Human β2 adrenoceptor; [2]): > 10 nM
